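Assay format: 96-well plates, 48-hour exposure. GI50 = concentration required for 50% inhibition of growth.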 The source made the active and inactive calls. No stated cut-off is given here; in the data, active = GI50 up to about 1.1 µM and inactive = higher.
Columns and labels:
Assay in all cases: NCI-60 cell line screen, 48 h
[1] = system: NCI-H23
[2] = system: KM-20L2
[3] = system: DLD-1
[4] = system: U-251
[5] = system: K562
[6] = system: ACHN
[7] = system: HCT-116
[8] = system: A498
[9] = system: TK-10
[10] = system: SNB-78
[11] = system: CCRF-CEM
[12] = system: NCI-H226
[13] = system: XF498
[14] = system: Malme-3M
[15] = system: SW-620
[16] = system: M14
[17] = system: KM12
[18] = system: DMS-273
[19] = system: SNB-19
[20] = system: IGROV-1
[21] = system: UACC-62
[22] = system: RXF 393
[23] = system: HOP-18
[24] = system: 786-0
[25] = system: A549
[26] = system: SNB-75
[27] = system: CAKI-1
[28] = system: HCT-15
[29] = system: RXF 631
[30] = system: UACC-257
[31] = system: OVCAR-3
[32] = system: COLO 205
[33] = system: UO-31
[34] = system: MOLT-4
[35] = system: HT-29
[36] = system: SK-MEL-2
[37] = system: RPMI-8226
[38] = system: SK-OV-3
[39] = system: EKVX
[40] = system: NCI-H522
[41] = system: M19-MEL
[42] = system: SK-MEL-5
[43] = system: SF-295
[44] = system: SF-539
[45] = system: HCC 2998
[46] = system: OVCAR-4
[47] = system: SN12C
[48] = system: SF-268
[49] = system: DMS-114
[50] = system: HOP-62
[51] = system: LOX IMVI
[52] = system: HL-60
[53] = system: SK-MEL-28
[54] = system: OVCAR-8
[55] = system: NCI-H460
[56] = system: LXFL 529
[57] = system: HOP-92
[58] = system: SR

Compound: CCCCCCCCCCCC(=O)OC(COC(N)=O)COc1ccc(Cl)cc1 (stereo not given)
- GI50 [1]: 20.7 µM (inactive)
- GI50 [2]: 37.8 µM (inactive)
- GI50 [3]: 38 µM (inactive)
- GI50 [4]: 25.8 µM (inactive)
- GI50 [5]: 19.2 µM (inactive)
- GI50 [6]: > 100 µM (inactive)
- GI50 [7]: 15.9 µM (inactive)
- GI50 [8]: 65.9 µM (inactive)
- GI50 [9]: 30.6 µM (inactive)
- GI50 [10]: 24.3 µM (inactive)
- GI50 [11]: 18.2 µM (inactive)
- GI50 [12]: 17.3 µM (inactive)
- GI50 [13]: 21.4 µM (inactive)
- GI50 [14]: 21.9 µM (inactive)
- GI50 [15]: 24.3 µM (inactive)
- GI50 [16]: 20.1 µM (inactive)
- GI50 [17]: 25.8 µM (inactive)
- GI50 [18]: 20.9 µM (inactive)
- GI50 [19]: 33.3 µM (inactive)
- GI50 [20]: 27.5 µM (inactive)
- GI50 [21]: 19.5 µM (inactive)
- GI50 [22]: 21 µM (inactive)
- GI50 [23]: 11.3 µM (inactive)
- GI50 [24]: 35.8 µM (inactive)
- GI50 [25]: 19.1 µM (inactive)
- GI50 [26]: 33.4 µM (inactive)
- GI50 [27]: 21.3 µM (inactive)
- GI50 [28]: 28 µM
- GI50 [29]: 26.2 µM (inactive)
- GI50 [30]: 19.1 µM (inactive)
- GI50 [31]: 16.3 µM (inactive)
- GI50 [32]: 17 µM (inactive)
- GI50 [33]: 32.9 µM (inactive)
- GI50 [34]: 23.7 µM (inactive)
- GI50 [35]: 20 µM (inactive)
- GI50 [36]: 24.5 µM (inactive)
- GI50 [37]: 22.1 µM (inactive)
- GI50 [38]: > 100 µM (inactive)
- GI50 [39]: 30.1 µM (inactive)
- GI50 [40]: 17.1 µM (inactive)
- GI50 [41]: 18.6 µM (inactive)
- GI50 [42]: 17.6 µM (inactive)
- GI50 [43]: 20.3 µM (inactive)
- GI50 [44]: 18.8 µM (inactive)
- GI50 [45]: 30.5 µM (inactive)
- GI50 [46]: 19.1 µM (inactive)
- GI50 [47]: 26.7 µM (inactive)
- GI50 [48]: 20.6 µM (inactive)
- GI50 [49]: 17.3 µM (inactive)
- GI50 [50]: 25 µM (inactive)
- GI50 [51]: 23.2 µM (inactive)
- GI50 [52]: 15.3 µM (inactive)
- GI50 [53]: 20.3 µM (inactive)
- GI50 [54]: 17.7 µM (inactive)
- GI50 [55]: 23.7 µM (inactive)
- GI50 [56]: 20.8 µM (inactive)

Compound: CN[C@@H](C)[C@H](NC)c1ccccc1
- GI50 [1]: > 100 µM (inactive)
- GI50 [3]: > 100 µM (inactive)
- GI50 [4]: > 100 µM (inactive)
- GI50 [5]: > 100 µM (inactive)
- GI50 [7]: > 100 µM (inactive)
- GI50 [9]: > 100 µM (inactive)
- GI50 [10]: > 100 µM (inactive)
- GI50 [11]: > 100 µM (inactive)
- GI50 [12]: > 100 µM (inactive)
- GI50 [14]: > 100 µM (inactive)
- GI50 [15]: > 100 µM (inactive)
- GI50 [16]: > 100 µM (inactive)
- GI50 [17]: > 100 µM (inactive)
- GI50 [18]: > 100 µM (inactive)
- GI50 [19]: > 100 µM (inactive)
- GI50 [20]: > 100 µM (inactive)
- GI50 [21]: > 100 µM (inactive)
- GI50 [22]: > 100 µM (inactive)
- GI50 [23]: > 100 µM (inactive)
- GI50 [24]: > 100 µM (inactive)
- GI50 [25]: > 100 µM (inactive)
- GI50 [26]: > 100 µM (inactive)
- GI50 [27]: > 100 µM (inactive)
- GI50 [57]: > 100 µM (inactive)
- GI50 [28]: 33.3 µM
- GI50 [29]: > 100 µM (inactive)
- GI50 [30]: > 100 µM (inactive)
- GI50 [31]: > 100 µM (inactive)
- GI50 [32]: > 100 µM (inactive)
- GI50 [33]: > 100 µM (inactive)
- GI50 [34]: > 100 µM (inactive)
- GI50 [35]: > 100 µM (inactive)
- GI50 [37]: > 100 µM (inactive)
- GI50 [38]: > 100 µM (inactive)
- GI50 [39]: > 100 µM (inactive)
- GI50 [40]: > 100 µM (inactive)
- GI50 [41]: > 100 µM (inactive)
- GI50 [42]: > 100 µM (inactive)
- GI50 [43]: > 100 µM (inactive)
- GI50 [44]: > 100 µM (inactive)
- GI50 [45]: > 100 µM (inactive)
- GI50 [47]: > 100 µM (inactive)
- GI50 [49]: > 100 µM (inactive)
- GI50 [51]: > 100 µM (inactive)
- GI50 [52]: > 100 µM (inactive)
- GI50 [53]: > 100 µM (inactive)
- GI50 [54]: > 100 µM (inactive)
- GI50 [56]: > 100 µM (inactive)

Compound: c1cc(N(CCn2cccn2)CCn2cccn2)cc(N(CCn2cccn2)CCn2cccn2)c1
- GI50 [2]: > 100 µM (inactive)
- GI50 [3]: > 100 µM (inactive)
- GI50 [4]: > 100 µM (inactive)
- GI50 [5]: > 100 µM (inactive)
- GI50 [6]: > 100 µM (inactive)
- GI50 [7]: > 100 µM (inactive)
- GI50 [8]: > 100 µM (inactive)
- GI50 [9]: > 100 µM (inactive)
- GI50 [10]: > 100 µM (inactive)
- GI50 [11]: > 100 µM (inactive)
- GI50 [13]: 77.6 µM (inactive)
- GI50 [15]: > 100 µM (inactive)
- GI50 [16]: > 100 µM (inactive)
- GI50 [17]: > 100 µM (inactive)
- GI50 [18]: > 100 µM (inactive)
- GI50 [19]: > 100 µM (inactive)
- GI50 [21]: > 100 µM (inactive)
- GI50 [22]: > 100 µM (inactive)
- GI50 [24]: > 100 µM (inactive)
- GI50 [25]: > 100 µM (inactive)
- GI50 [26]: > 100 µM (inactive)
- GI50 [27]: > 100 µM (inactive)
- GI50 [57]: > 100 µM (inactive)
- GI50 [28]: > 100 µM
- GI50 [29]: > 100 µM (inactive)
- GI50 [30]: > 100 µM (inactive)
- GI50 [31]: > 100 µM (inactive)
- GI50 [32]: > 100 µM (inactive)
- GI50 [33]: > 100 µM (inactive)
- GI50 [34]: > 100 µM (inactive)
- GI50 [36]: > 100 µM (inactive)
- GI50 [37]: > 100 µM (inactive)
- GI50 [58]: > 100 µM (inactive)
- GI50 [38]: > 100 µM (inactive)
- GI50 [39]: > 100 µM (inactive)
- GI50 [40]: > 100 µM (inactive)
- GI50 [41]: > 100 µM (inactive)
- GI50 [42]: > 100 µM (inactive)
- GI50 [43]: > 100 µM (inactive)
- GI50 [45]: > 100 µM (inactive)
- GI50 [46]: > 100 µM (inactive)
- GI50 [47]: > 100 µM (inactive)
- GI50 [48]: > 100 µM (inactive)
- GI50 [49]: > 100 µM (inactive)
- GI50 [50]: > 100 µM (inactive)
- GI50 [51]: > 100 µM (inactive)
- GI50 [52]: > 100 µM (inactive)
- GI50 [53]: > 100 µM (inactive)
- GI50 [54]: > 100 µM (inactive)
- GI50 [55]: > 100 µM (inactive)
- GI50 [56]: > 100 µM (inactive)

Reference: ChEMBL document CHEMBL1201862, “PubChem BioAssay data set” (2004)
